Kinase still bound, per cent of control data for five compounds are collected here from the kinase profiling compilation of Christmann-Franck et al. (2016).

Among the targets are CSNK1D (human) (UniProt P48730); DAPK2 (human) (UniProt Q9UIK4); DYRK1B (human) (UniProt Q9Y463); HIPK1 (human) (UniProt Q86Z02); MAP2K3 (human) (UniProt P46734); MYLK3 (human) (UniProt Q32MK0); MYLK4 (human) (UniProt Q86YV6); PIM1 (human) (UniProt P11309); PIM2 (human) (UniProt Q9P1W9); PIP5K1A (human) (UniProt Q99755); PLK4 (human) (UniProt O00444); RPS6KA6 KD2 (human) (UniProt Q9UK32); STK17A (human) (UniProt Q9UEE5); STK17B (human) (UniProt O94768); ACVR1 (human) (UniProt Q04771); CSNK1G1 (human) (UniProt Q9HCP0); CSNK1G3 (human) (UniProt Q9Y6M4); KIT (human) (UniProt P10721); MAP4K2 (human) (UniProt Q12851); MAP4K4 (human) (UniProt O95819); MKNK1 (human) (UniProt Q9BUB5); PDGFRB (human) (UniProt P09619); RIOK2 (human) (UniProt Q9BVS4); RIPK2 (human) (UniProt O43353); RIPK4 (human) (UniProt P57078); ULK2 (human) (UniProt Q8IYT8); CAMKK1 (human) (UniProt Q8N5S9); CAMKK2 (human) (UniProt Q96RR4); FLT3 (human) (UniProt P36888); STK16 (human) (UniProt O75716); TTK (human) (UniProt P33981); CLK3 (human) (UniProt P49761); MYLK (human) (UniProt Q15746); NEK2 (human) (UniProt P51955).

Holding throughout (test): KINOMEscan competition binding
Common to all, as to settings: compound 10.0 µM

Assay [1] concerns the target JAK1 JH2 pseudokinase (human) (UniProt P23458).
The subject of assay [2] is EGFR (human), P00533 [G719S].
The subject of assay [3] is FLT3 (human), P36888 [D835H].
The test system of assay [4] is KIT (human), P10721 [D816V].
For assay [5], the system named is KIT (human), P10721 [V559D/T670I].
The target of assay [6] is JAK3 JH1 catalytic (human) (UniProt P52333).

Sequence of MAP4K4 (human) (O95819 whole entry, looked up): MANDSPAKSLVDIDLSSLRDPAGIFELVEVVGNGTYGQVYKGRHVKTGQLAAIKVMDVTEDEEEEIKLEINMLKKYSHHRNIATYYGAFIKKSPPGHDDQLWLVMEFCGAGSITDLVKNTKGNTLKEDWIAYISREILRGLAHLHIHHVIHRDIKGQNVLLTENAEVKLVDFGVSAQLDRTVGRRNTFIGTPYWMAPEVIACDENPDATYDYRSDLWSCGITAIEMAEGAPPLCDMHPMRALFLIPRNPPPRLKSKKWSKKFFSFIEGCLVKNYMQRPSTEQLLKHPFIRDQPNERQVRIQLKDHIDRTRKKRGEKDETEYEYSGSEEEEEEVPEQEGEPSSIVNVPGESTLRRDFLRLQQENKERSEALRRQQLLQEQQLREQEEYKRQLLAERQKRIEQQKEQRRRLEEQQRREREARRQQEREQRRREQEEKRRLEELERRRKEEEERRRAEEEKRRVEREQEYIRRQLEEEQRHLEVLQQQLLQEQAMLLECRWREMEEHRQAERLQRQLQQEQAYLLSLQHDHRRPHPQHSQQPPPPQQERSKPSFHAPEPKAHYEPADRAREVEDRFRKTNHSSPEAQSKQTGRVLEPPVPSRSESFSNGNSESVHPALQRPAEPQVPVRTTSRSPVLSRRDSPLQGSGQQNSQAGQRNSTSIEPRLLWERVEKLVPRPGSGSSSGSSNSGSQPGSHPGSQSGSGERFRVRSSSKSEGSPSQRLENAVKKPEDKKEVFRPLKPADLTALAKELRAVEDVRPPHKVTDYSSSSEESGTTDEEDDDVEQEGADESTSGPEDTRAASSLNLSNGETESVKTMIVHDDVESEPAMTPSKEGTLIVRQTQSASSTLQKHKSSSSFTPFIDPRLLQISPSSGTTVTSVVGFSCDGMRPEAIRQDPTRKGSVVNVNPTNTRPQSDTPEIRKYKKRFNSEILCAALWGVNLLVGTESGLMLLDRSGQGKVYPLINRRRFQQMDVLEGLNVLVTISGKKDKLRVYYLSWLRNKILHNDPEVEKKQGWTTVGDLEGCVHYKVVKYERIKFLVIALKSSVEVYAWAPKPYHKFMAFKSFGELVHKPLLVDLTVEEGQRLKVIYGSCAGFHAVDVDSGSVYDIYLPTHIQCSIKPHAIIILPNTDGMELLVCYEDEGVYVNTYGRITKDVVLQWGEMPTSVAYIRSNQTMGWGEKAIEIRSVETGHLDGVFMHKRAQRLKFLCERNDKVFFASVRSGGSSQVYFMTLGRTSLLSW
Sequence of PIP5K1A (human) (Q99755 whole entry, looked up): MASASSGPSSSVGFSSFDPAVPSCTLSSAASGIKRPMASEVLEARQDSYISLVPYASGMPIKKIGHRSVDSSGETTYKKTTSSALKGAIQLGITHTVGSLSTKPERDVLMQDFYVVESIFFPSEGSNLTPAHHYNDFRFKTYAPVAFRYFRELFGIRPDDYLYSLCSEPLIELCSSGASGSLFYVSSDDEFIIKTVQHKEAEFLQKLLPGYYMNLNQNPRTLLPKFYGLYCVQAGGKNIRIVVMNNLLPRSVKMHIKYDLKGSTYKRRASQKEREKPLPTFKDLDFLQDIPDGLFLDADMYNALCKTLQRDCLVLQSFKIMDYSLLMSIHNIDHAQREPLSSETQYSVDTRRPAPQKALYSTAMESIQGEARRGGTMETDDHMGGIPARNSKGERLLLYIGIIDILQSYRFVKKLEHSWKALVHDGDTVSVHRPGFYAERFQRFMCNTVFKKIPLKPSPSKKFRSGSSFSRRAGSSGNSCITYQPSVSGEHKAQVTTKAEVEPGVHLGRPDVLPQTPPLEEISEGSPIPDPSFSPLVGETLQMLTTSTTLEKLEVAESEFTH
Sequence of DYRK1B (human) (Q9Y463 whole entry, looked up): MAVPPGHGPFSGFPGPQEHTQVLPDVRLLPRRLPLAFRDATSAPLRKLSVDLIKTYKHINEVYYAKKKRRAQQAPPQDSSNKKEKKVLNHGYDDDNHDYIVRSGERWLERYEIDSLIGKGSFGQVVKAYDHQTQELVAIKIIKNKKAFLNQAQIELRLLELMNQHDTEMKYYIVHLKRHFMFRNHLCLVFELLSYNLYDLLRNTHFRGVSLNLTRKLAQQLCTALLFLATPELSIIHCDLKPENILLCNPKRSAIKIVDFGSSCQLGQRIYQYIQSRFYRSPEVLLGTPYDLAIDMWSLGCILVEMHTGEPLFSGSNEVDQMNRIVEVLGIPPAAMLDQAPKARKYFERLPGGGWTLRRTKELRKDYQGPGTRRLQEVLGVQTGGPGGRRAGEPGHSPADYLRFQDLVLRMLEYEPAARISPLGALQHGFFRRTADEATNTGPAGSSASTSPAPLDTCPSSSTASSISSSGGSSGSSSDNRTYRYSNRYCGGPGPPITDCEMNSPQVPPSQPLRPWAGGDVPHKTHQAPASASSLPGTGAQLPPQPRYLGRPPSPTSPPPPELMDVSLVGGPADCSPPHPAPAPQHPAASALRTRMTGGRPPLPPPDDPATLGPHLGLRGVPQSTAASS
Sequence of PIM1 (human) (P11309 whole entry, looked up): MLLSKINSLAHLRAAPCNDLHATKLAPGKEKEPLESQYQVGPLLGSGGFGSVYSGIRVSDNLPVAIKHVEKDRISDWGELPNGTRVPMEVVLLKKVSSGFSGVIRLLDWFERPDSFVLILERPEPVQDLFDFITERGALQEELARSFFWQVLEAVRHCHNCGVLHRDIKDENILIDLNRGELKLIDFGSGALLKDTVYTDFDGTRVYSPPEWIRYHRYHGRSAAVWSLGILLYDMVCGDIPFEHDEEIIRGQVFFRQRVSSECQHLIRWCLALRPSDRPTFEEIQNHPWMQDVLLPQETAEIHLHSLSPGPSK
Sequence of MYLK3 (human) (Q32MK0 whole entry, looked up): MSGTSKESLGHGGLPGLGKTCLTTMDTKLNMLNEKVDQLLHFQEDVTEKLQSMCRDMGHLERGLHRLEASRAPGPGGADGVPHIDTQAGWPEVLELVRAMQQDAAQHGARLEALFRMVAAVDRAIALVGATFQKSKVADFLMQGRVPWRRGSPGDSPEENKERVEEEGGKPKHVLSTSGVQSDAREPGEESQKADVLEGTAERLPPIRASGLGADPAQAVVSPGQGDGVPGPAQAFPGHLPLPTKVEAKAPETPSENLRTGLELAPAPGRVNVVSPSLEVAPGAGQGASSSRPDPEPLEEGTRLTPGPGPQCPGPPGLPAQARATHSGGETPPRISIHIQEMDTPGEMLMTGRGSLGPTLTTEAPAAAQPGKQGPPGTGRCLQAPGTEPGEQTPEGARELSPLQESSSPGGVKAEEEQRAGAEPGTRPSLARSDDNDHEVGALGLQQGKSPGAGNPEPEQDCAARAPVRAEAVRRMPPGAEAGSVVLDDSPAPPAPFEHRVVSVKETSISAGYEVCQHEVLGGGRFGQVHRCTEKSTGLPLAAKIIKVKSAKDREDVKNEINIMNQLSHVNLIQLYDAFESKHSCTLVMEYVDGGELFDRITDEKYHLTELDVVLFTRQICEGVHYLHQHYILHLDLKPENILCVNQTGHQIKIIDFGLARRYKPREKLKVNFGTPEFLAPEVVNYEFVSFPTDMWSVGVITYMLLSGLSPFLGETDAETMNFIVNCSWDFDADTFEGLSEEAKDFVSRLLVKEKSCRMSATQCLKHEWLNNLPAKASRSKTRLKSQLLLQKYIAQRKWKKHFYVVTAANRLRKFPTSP
Sequence of MAP4K2 (human) (Q12851 whole entry, looked up): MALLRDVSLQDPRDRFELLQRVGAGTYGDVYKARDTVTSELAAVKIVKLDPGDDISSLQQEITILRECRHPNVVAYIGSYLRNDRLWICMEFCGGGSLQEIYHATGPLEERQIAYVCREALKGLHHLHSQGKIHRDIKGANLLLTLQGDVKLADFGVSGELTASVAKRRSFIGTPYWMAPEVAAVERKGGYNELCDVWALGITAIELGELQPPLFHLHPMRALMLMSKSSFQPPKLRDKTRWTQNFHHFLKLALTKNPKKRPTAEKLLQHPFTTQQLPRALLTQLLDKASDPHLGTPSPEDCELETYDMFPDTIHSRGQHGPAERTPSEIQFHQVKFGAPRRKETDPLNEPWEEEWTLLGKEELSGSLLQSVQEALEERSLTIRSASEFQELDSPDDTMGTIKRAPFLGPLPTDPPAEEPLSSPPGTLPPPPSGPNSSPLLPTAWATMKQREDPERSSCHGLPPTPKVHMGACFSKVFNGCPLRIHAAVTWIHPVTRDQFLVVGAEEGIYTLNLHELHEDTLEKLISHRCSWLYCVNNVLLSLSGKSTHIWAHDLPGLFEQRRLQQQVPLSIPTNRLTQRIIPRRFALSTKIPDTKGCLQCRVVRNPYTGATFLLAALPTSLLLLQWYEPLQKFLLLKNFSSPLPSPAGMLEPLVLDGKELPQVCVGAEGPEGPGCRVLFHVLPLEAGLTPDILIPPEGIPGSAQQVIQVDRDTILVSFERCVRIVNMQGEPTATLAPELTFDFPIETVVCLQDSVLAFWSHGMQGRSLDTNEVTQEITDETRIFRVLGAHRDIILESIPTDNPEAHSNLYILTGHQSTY
Sequence of MYLK4 (human) (Q86YV6 whole entry, looked up): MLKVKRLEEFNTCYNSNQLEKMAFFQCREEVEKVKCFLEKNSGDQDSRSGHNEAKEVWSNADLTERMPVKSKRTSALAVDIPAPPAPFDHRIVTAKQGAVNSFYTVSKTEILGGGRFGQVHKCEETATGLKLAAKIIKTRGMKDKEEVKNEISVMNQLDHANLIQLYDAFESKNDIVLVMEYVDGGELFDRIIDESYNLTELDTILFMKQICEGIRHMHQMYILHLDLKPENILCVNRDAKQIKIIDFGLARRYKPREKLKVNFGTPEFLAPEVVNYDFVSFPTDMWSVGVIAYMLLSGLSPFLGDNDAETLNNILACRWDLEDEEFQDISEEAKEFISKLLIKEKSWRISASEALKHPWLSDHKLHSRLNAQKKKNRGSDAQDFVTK

With `N=C1NC(=O)/C(=C/c2ccc(-c3csc4ccccc34)o2)S1`, the kinase still bound, per cent of control on CSNK1D (human) turned out to be 34%; on DAPK2 (human) it was 14%; at DYRK1B (human), 25%; on HIPK1 (human) it was 0.6%; in [1] it was 19%; at MAP2K3 (human), 20%. Moreover, the kinase still bound, per cent of control at MYLK3 (human) was 21%; at MYLK4 (human) it was 32%; on PIM1 (human) it was 8.1%; at PIM2 (human), 0.3%; at PIP5K1A (human), 30%; on PLK4 (human), 5.2%. The kinase still bound, per cent of control stood at 18% at RPS6KA6 KD2 (human), 0.05% at STK17A (human) and 0.4% at STK17B (human).
On to `CS(=O)(=O)Nc1ccc(-c2cncc(/C=C3\SC(=N)NC3=O)c2)cc1`, for which the kinase still bound, per cent of control at ACVR1 (human) turned out to be 1.8%; on CSNK1D (human), 1.4%; at CSNK1G1 (human), 18%; at CSNK1G3 (human) it was 1%; at DAPK2 (human), 14%; on DYRK1B (human) it was 17%. The kinase still bound, per cent of control in assay [2] was determined as 24%; in assay [3] it was 8.7%; on HIPK1 (human), 19%; on KIT (human), 8.2%; in assay [4], 2.2%; in [5], 31%. In addition, the kinase still bound, per cent of control stood at 16% on MAP2K3 (human); 5.8% at MAP4K2 (human); 5.5% on MAP4K4 (human); 0.55% at MKNK1 (human); 19% at MYLK3 (human); 29% at MYLK4 (human). The kinase still bound, per cent of control on PDGFRB (human) was determined as 7.2%; on PLK4 (human), 5.6%; on RIOK2 (human), 23%; at RIPK2 (human) it was 1.4%; at RIPK4 (human) it was 5.8%; on STK17A (human), 0.45%. Further, the results for the kinase still bound, per cent of control at STK17B (human) and on ULK2 (human) were 5.4% and 29%, respectively.
As to `O=C1NC(=S)S/C1=C\c1ccc(-c2cncc3ccccc23)o1`, the kinase still bound, per cent of control was found to be 14% on ACVR1 (human); 5.6% at CAMKK1 (human); 14% at CAMKK2 (human); 9.3% on DAPK2 (human); 13% at DYRK1B (human); 27% in [2]. Besides, the kinase still bound, per cent of control stood at 16% on FLT3 (human); 7.4% in assay [3]; 3.4% at HIPK1 (human); 8.5% in assay [1]; 21% in assay [6]; 21% on KIT (human). Besides, the kinase still bound, per cent of control in assay [4] is 9.6%; on MAP4K4 (human), 25%; at MKNK1 (human), 33%; on MYLK3 (human), 8.7%; at MYLK4 (human), 0.25%; on PDGFRB (human) it was 18%. The kinase still bound, per cent of control on PIM1 (human) stood at 2.7%; on PIM2 (human) it was 0.55%; at PIP5K1A (human) it was 17%; on PLK4 (human), 0.85%; at RIOK2 (human) it was 3.4%; at RPS6KA6 KD2 (human), 5.4%. The kinase still bound, per cent of control at STK16 (human) came to 9.8%; at STK17A (human), 0%; on STK17B (human), 0.25%; on TTK (human), 17%.
On to `CSC1=NC(=O)/C(=C/c2c[nH]c(=O)c(-c3ccc(NS(C)(=O)=O)cc3)c2)S1`, for which the kinase still bound, per cent of control at CAMKK1 (human) is 25%; on CAMKK2 (human), 31%; at CLK3 (human), 14%; on DAPK2 (human), 3.6%; on DYRK1B (human), 15%; at HIPK1 (human), 2.2%. Also, the kinase still bound, per cent of control on MAP2K3 (human) was found to be 29%; at MAP4K2 (human), 7.7%; on MYLK (human) it was 34%; at NEK2 (human) it was 27%; on PIM1 (human), 13%; on PIM2 (human), 1.7%. Besides, the kinase still bound, per cent of control on PIP5K1A (human) was determined as 29%; on PLK4 (human) it was 14%; at RIPK4 (human), 8.4%; on STK16 (human), 21%; at STK17A (human), 5%; at STK17B (human), 5%. The same compound gave a kinase still bound, per cent of control at ULK2 (human) of 13%.
`CS(=O)(=O)Nc1ccc(-c2ncc(/C=C3\SC(=N)NC3=O)s2)cc1`: the kinase still bound, per cent of control on CAMKK2 (human) is 29%; on CSNK1G1 (human), 22%; on CSNK1G3 (human), 8.3%; at DAPK2 (human) it was 3.2%; at DYRK1B (human), 3.1%; in [3], 23%. Also, the kinase still bound, per cent of control in assay [4] was 4.4%; in [5], 32%; on MAP4K2 (human), 29%; on MAP4K4 (human), 7.9%; at MKNK1 (human), 13%; on MYLK (human), 19%. Besides, the kinase still bound, per cent of control came to 2.6% at MYLK3 (human); 10% on PDGFRB (human); 2.8% on PIM1 (human); 4.3% at PIM2 (human); 11% on PLK4 (human); 6.6% on RIPK2 (human). Besides, the kinase still bound, per cent of control amounted to 2% on STK17A (human), 24% at STK17B (human), 19% on TTK (human) and 24% at ULK2 (human).
